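Compound exposure: 48 hours, 5 concentrations, 96-well plates. At the GI50, growth is halved.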 Calls of active or inactive are those of the source. Rule as the data show it: active = GI50 up to about 1.1 µM and inactive = higher.
Assays:
Assay in all cases: NCI anticancer screen, dose series, 48 h
[1] = test system: CAKI-1
[2] = test system: COLO 205
[3] = test system: EKVX
[4] = test system: HCT-15
[5] = test system: HOP-62
[6] = test system: IGROV-1
[7] = test system: K562
[8] = test system: MOLT-4
[9] = test system: Malme-3M
[10] = test system: NCI-H460
[11] = test system: SK-MEL-2
[12] = test system: SK-MEL-5
[13] = test system: SW-620
[14] = test system: U-251
[15] = test system: HCC 2998

Compound	GI50 [1]	GI50 [2]	GI50 [3]	GI50 [4] [µM]	GI50 [5]	GI50 [6]	GI50 [7]	GI50 [8]	GI50 [9]	GI50 [10]	GI50 [11]	GI50 [12]	GI50 [13]	GI50 [14]	GI50 [15]
CCOC(=O)C(C(=O)Cc1ccccc1)c1ccccc1 (stereo not given)	> 100 µM (inactive)	> 100 µM (inactive)	> 100 µM (inactive)	> 100	> 100 µM (inactive)	> 100 µM (inactive)	> 100 µM (inactive)	87.9 µM (inactive)	> 100 µM (inactive)	> 100 µM (inactive)	> 100 µM (inactive)	> 100 µM (inactive)	> 100 µM (inactive)	> 100 µM (inactive)	
Cc1cccc(NC(=O)CSc2nnc(Cc3ccccc3)o2)c1	> 100 µM (inactive)	> 100 µM (inactive)	> 100 µM (inactive)	> 100	> 100 µM (inactive)	> 100 µM (inactive)	> 100 µM (inactive)	> 100 µM (inactive)	> 100 µM (inactive)	> 100 µM (inactive)	> 100 µM (inactive)	> 100 µM (inactive)	> 100 µM (inactive)	> 100 µM (inactive)	> 100 µM (inactive)
Cc1occ2c1C(=O)CC1C2[C@@H](O)CC2C(C)(C)CCC[C@]12C (stereo not given in full)		> 100 µM (inactive)	> 100 µM (inactive)	> 100	> 100 µM (inactive)	> 100 µM (inactive)	> 100 µM (inactive)	40 µM (inactive)	> 100 µM (inactive)			> 100 µM (inactive)	> 100 µM (inactive)	94.8 µM (inactive)	> 100 µM (inactive)
O=C(CC1(O)C(=O)Nc2ccccc21)c1ccccc1Cl (stereo not given)	> 100 µM (inactive)	> 100 µM (inactive)	> 100 µM (inactive)	> 100		> 100 µM (inactive)	> 100 µM (inactive)	> 100 µM (inactive)	> 100 µM (inactive)	> 100 µM (inactive)	> 100 µM (inactive)	> 100 µM (inactive)	> 100 µM (inactive)		
COC(=O)C(=O)C(CC(=O)Nc1c(C)cccc1C)C(=O)OC (stereo not given)	> 100 µM (inactive)		> 100 µM (inactive)	> 100	> 100 µM (inactive)	> 100 µM (inactive)	> 100 µM (inactive)	> 100 µM (inactive)	> 100 µM (inactive)	> 100 µM (inactive)	> 100 µM (inactive)	> 100 µM (inactive)	> 100 µM (inactive)	> 100 µM (inactive)	> 100 µM (inactive)
Cc1ccc(C2=Nc3ccccc3[S+]([O-])C(c3ccc4c(c3)OCO4)C2)cc1 (stereo not given)	24.5 µM (inactive)	29.6 µM (inactive)	52 µM (inactive)		39.4 µM (inactive)	34.8 µM (inactive)	27.7 µM (inactive)	23.9 µM (inactive)	33.8 µM (inactive)	> 10 µM (inactive)	19 µM (inactive)	15 µM (inactive)	18.5 µM (inactive)	13 µM (inactive)	> 10 µM (inactive)
CC1(C)C2CCC3(C2)CS(=O)(=O)N2OC231 (stereo not given)	16 µM (inactive)	17.9 µM (inactive)	15.7 µM (inactive)	16.1	79.8 µM (inactive)	19.5 µM (inactive)	17.4 µM (inactive)		15.5 µM (inactive)	19.5 µM (inactive)	21.1 µM (inactive)	21 µM (inactive)	16.5 µM (inactive)	34.4 µM (inactive)	38.1 µM (inactive)
O=C(CSc1nnc(Cc2ccccc2)o1)Nc1ccc(Cl)cc1Cl	> 100 µM (inactive)	> 100 µM (inactive)		> 100	> 100 µM (inactive)	> 100 µM (inactive)	> 100 µM (inactive)	> 100 µM (inactive)	> 100 µM (inactive)	> 100 µM (inactive)	> 100 µM (inactive)	> 100 µM (inactive)	> 100 µM (inactive)	> 100 µM (inactive)	> 100 µM (inactive)
COc1ccc(C(c2ccccc2C(=O)O)c2ccc(OC)c3ccccc23)c2ccccc12	28.8 µM (inactive)	13 µM (inactive)	20.2 µM (inactive)	8.63	15.5 µM (inactive)	11.3 µM (inactive)	5.2 µM (inactive)	5.62 µM (inactive)	13.3 µM (inactive)			15.9 µM (inactive)	14.8 µM (inactive)	7.83 µM (inactive)	6.49 µM (inactive)
O=C(Cc1ccccc1)N/N=C(/c1nc2ccc([N+](=O)[O-])cc2nc1O)C(O)c1ccc(C(O)/C(=N/NC(=O)Cc2ccccc2)c2nc3ccc([N+](=O)[O-])cc3nc2O)cc1 (stereo not given)	40.1 µM (inactive)	37.5 µM (inactive)	> 100 µM (inactive)	19.4	44.6 µM (inactive)	> 100 µM (inactive)	12.4 µM (inactive)		> 100 µM (inactive)		40 µM (inactive)		39.4 µM (inactive)		27 µM (inactive)
COCCCNC(=O)CC(=O)NCCCOC		> 100 µM (inactive)	> 100 µM (inactive)	> 100	> 100 µM (inactive)	> 100 µM (inactive)	> 100 µM (inactive)	> 100 µM (inactive)	> 100 µM (inactive)	> 100 µM (inactive)	> 100 µM (inactive)	> 100 µM (inactive)	> 100 µM (inactive)	> 100 µM (inactive)	> 100 µM (inactive)
Cc1ccc([N+](=O)[O-])cc1NC(=O)/C(CC(=O)c1sc(C(N)=S)nc1C)=N\N	> 100 µM (inactive)		65.3 µM (inactive)	> 100	> 100 µM (inactive)	30.6 µM (inactive)	41.4 µM (inactive)	68.5 µM (inactive)	> 100 µM (inactive)	35.1 µM (inactive)	> 100 µM (inactive)	90.6 µM (inactive)	> 100 µM (inactive)	32.1 µM (inactive)	> 100 µM (inactive)
O=C(/C=C/c1ccccc1)NC1C=Nc2ccc([N+](=O)[O-])cc2NC1=O (stereo not given)	> 100 µM (inactive)	29 µM (inactive)	> 100 µM (inactive)	23.2	84.3 µM (inactive)	> 100 µM (inactive)	27 µM (inactive)	53.8 µM (inactive)	> 100 µM (inactive)	> 100 µM (inactive)	25.7 µM (inactive)	> 100 µM (inactive)	> 100 µM (inactive)	> 100 µM (inactive)	34.8 µM (inactive)
CCN(CC)c1cccc2c1C1(O)CCC3(CC21)OCCCCO3 (stereo not given)	> 100 µM (inactive)	> 100 µM (inactive)		66.8	> 100 µM (inactive)	67.1 µM (inactive)	> 100 µM (inactive)	> 100 µM (inactive)	> 100 µM (inactive)	53.2 µM (inactive)	> 100 µM (inactive)	55.6 µM (inactive)	69.3 µM (inactive)	39.9 µM (inactive)	> 100 µM (inactive)
N#CC1(C2CC(=O)N(c3ccccc3)C2=O)CCCCC1=O (stereo not given)		> 100 µM (inactive)	> 100 µM (inactive)	> 100		> 100 µM (inactive)	> 100 µM (inactive)	> 100 µM (inactive)	0.498 µM (active)	> 100 µM (inactive)		> 100 µM (inactive)	> 100 µM (inactive)	> 100 µM (inactive)	0.104 µM (active)
COc1cc(C(=O)NO)ccc1O		> 100 µM (inactive)	> 100 µM (inactive)	> 100	> 100 µM (inactive)	> 100 µM (inactive)	> 100 µM (inactive)	> 100 µM (inactive)	> 100 µM (inactive)	> 100 µM (inactive)	> 100 µM (inactive)		> 100 µM (inactive)	> 100 µM (inactive)	> 100 µM (inactive)
CCOC(=O)c1[nH]c2cc(OC)c(OC)cc2c1CN(C)C	> 100 µM (inactive)		> 100 µM (inactive)	> 100		> 100 µM (inactive)	> 100 µM (inactive)	> 100 µM (inactive)	> 100 µM (inactive)	> 100 µM (inactive)	> 100 µM (inactive)	> 100 µM (inactive)	> 100 µM (inactive)	> 100 µM (inactive)	> 100 µM (inactive)
Cc1c(-c2ccccc2)c(=O)oc2ccc(Cl)cc12		> 100 µM (inactive)	64.7 µM (inactive)	> 100	27.9 µM (inactive)	> 100 µM (inactive)	> 100 µM (inactive)	> 100 µM (inactive)	99.3 µM (inactive)	70.5 µM (inactive)	> 100 µM (inactive)	40.3 µM (inactive)	> 100 µM (inactive)	46.9 µM (inactive)	> 100 µM (inactive)
CC(=O)c1cccc(NC(=O)/C(=N\NC(C)(C)C)c2c(O)c3ccccc3oc2=O)c1	> 100 µM (inactive)	> 100 µM (inactive)	> 100 µM (inactive)	> 100	> 100 µM (inactive)	> 100 µM (inactive)		> 100 µM (inactive)	> 100 µM (inactive)	> 100 µM (inactive)	> 100 µM (inactive)	> 100 µM (inactive)	> 100 µM (inactive)		> 100 µM (inactive)
CCCCCC[C@@H]1CCC2C(CO)[C@@H](O)CC[C@@H]2C1 (stereo not given in full)	> 10 µM (inactive)	18.5 µM (inactive)	18.2 µM (inactive)	19	18.3 µM (inactive)	18.2 µM (inactive)	21.3 µM (inactive)	18.2 µM (inactive)	18.8 µM (inactive)	15.5 µM (inactive)	26.7 µM (inactive)	20 µM (inactive)	23.1 µM (inactive)	18.2 µM (inactive)	22 µM (inactive)

Reference: ChEMBL document CHEMBL1201862, “PubChem BioAssay data set” (2004)
